Measured values as given in patent US4528133A, “Biologically active tripeptide and tetrapeptide alkylamides, and method for the preparation thereof” (SPOFA, spojene podniky pro zdravotnickou vyrobu, priority 1982, dated 1985).
Where two headings read alike, the source gives them in different places. Where a SMILES comes first, the peptide text is derived from it. The star is where a group is joined. Undecanoyl = CCCCCCCCCCC(=O)*; Cbz = O=C(OCc1ccccc1)*; Butyryl = CCCC(=O)*; NHiBu = CC(C)CN*; NHPr = CCCN*

Legend:
pancreatic elastase = pancreatic elastase (UniProt P00772); test: Inhibition of pancreatic elastase (PE), Ki with synthetic nitroanilide substrates; format: biochemical
Chain of pancreatic elastase (P00772 27-266): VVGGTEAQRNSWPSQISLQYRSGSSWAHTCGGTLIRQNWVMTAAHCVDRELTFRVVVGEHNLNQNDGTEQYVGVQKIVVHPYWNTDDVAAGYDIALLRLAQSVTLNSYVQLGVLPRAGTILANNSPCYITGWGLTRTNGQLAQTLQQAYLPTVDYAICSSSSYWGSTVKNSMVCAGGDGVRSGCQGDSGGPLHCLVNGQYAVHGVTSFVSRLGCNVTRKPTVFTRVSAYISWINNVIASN

leucocytal elastase = molecular target: T1, leucocytal elastase (Homo sapiens, UniProt P08246); test: Inhibition of leucocytal elastase (LE), Ki with synthetic nitroanilide substrate; format: biochemical; details: substrate Glt-(Ala)3-Val-Nan; for Ki: read-out: Inhibition constant Ki, LE, Glt--(Ala)3--Val--Nan
T1 sequence (P08246 30-267): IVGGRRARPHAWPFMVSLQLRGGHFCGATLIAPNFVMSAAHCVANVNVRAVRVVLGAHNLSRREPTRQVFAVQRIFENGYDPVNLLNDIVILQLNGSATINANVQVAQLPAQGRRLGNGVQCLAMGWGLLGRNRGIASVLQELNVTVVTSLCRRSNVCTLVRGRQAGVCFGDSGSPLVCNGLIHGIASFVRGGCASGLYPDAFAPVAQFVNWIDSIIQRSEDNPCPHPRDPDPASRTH

[1] = substrate Glt-(Ala)4-Nan, read-out: Inhibition constant Ki, PE, Glt--(Ala)4--Nan
[2] = substrate Suc-(Ala)4-Nan, read-out: Inhibition constant Ki, PE, Suc--(Ala)4--Nan

SMILES	Ki (pancreatic elastase; [1])	Ki (pancreatic elastase; [2])	Ki (leucocytal elastase)	Inhibition constant Ki, LE, Glt--(Ala)3--Val--Nan (leucocytal elastase)
CCNC(=O)[C@H](C)NC(=O)[C@H](C)NC(=O)[C@@H]1CCCN1C(=O)[C@H](CC(=O)O)NC(C)=O [Ac--Asp--Pro--Ala--Ala--NH--Et, N^α -Acetylaspartyl-prolyl-alanyl-alanine ethylamide] (Ac-DPAA-NHEt)	34 µM	25 µM	1000 µM	
CCCC(=O)N[C@@H](CC(=O)O)C(=O)N[C@@H](C)C(=O)N[C@@H](C)C(=O)N1CCC[C@H]1C(=O)NCC(C)C [Btr--Asp--Ala--Ala--Pro--NH--iBu, N^α -Butyrylaspartyl-alanyl-alanyl-proline isobutylamide] (Butyryl-DAAP-NHiBu)	120 µM	120 µM	136 µM	
CCCNC(=O)[C@@H]1CCCN1C(=O)[C@H](C)NC(=O)[C@H](C)NC(=O)[C@H](CCC(=O)O)NC(=O)CCC [Btr--Glu--Ala--Ala--Pro--NH--Pr] (Butyryl-EAAP-NHPr)	193 µM	178 µM	180 µM	
CCCCCCCCCC=CCC(CC(=O)O)C(=O)N[C@@H](C)C(=O)N[C@@H](C)C(=O)N[C@@H](C)C(=O)NCC (some centres unmarked) [Dde--Ala--Ala--Ala--NH--Et, N-(2-Dodecenylsuccinyl)alanyl-alanyl-alanine ethylamide]	1.8 µM	2.5 µM		no inhibition
CCCCCCCCCC=CCC(CC(=O)O)C(=O)N[C@@H](C)C(=O)N[C@@H](C)C(=O)N[C@@H](C)C(=O)NCC(C)C (some centres unmarked) [Dde--Ala--Ala--Ala--NH--iBu]	93 µM	99 µM	515 µM	
CCCCCCCCCC=CCC(CC(=O)O)C(=O)N[C@@H](C)C(=O)N[C@@H](C)C(=O)N1CCC[C@H]1C(=O)NCCC (some centres unmarked) [Dde--Ala--Ala--Pro--NH--Pr, N-(2-Dodecenylsuccinyl)alanyl-alanyl-proline propylamide]	0.6 µM	0.5 µM	100 µM	
CCCCCCCCCCC(=O)N[C@@H](CC(=O)O)C(=O)N[C@@H](C)C(=O)N[C@@H](C)C(=O)N1CCC[C@H]1C(=O)NCC [UDA--Asp--Ala--Ala--Pro--NH--Et, N^α -Undecanoylaspartyl-alanyl-alanyl-proline ethylamide] (Undecanoyl-DAAP-NHEt)	5.4 µM		12 µM	
CCNC(=O)[C@H](C)NC(=O)[C@H](C)NC(=O)[C@H](C)NC(=O)[C@H](CCC(=O)O)NC(=O)OCc1ccccc1 [Z--Glu--Ala--Ala--Ala--NH--Et] (Cbz-EAAA-NHEt)	173 µM	28 µM	720 µM	
